Test results from publication PMC11104609, “Discovery of allosteric regulators with clinical potential to stabilize alpha-L-iduronidase in mucopolysaccharidosis type I” (PLOS ONE, 2024).

Legend:
[1] = molecular target: T1, rhIDUA (Aldurazyme) (Homo sapiens, UniProt P35475); assay: IDUA assay in plasma of mice co-administered rhIDUA and GT-01803; assay type: in vivo, male C57BL/6 mice; conditions: GT-01803 5, 10, 20 mg/kg i.v. + rhIDUA 1.2 mg/kg i.v.; 0.5, 1, 2 h; dose-dependent, significant at 20 mg/kg
T1 sequence (P35475 28-653): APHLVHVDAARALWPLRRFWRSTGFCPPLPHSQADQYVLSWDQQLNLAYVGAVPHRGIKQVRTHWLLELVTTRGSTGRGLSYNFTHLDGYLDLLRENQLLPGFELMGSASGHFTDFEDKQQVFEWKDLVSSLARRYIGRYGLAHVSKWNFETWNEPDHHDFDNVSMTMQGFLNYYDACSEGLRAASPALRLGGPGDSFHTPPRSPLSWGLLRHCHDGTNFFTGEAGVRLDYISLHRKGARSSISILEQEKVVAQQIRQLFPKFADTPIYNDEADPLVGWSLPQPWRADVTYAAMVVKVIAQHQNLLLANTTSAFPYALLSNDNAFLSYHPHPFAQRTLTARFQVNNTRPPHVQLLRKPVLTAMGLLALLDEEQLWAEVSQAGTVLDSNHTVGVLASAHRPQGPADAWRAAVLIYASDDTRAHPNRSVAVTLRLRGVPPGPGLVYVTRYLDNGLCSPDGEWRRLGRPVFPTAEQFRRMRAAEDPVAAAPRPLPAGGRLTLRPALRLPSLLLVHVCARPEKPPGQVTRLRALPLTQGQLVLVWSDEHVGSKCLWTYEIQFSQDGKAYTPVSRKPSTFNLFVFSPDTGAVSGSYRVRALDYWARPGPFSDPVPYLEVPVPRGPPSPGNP
Protocol: Mice studies were performed by Sai Life Sciences (Pune, India). All procedures of the present study were in accordance with the guidelines provided by the Committee for the Purpose of Control and Supervision of Experiments on Animals (CPCSEA) as published in The Gazette of India, December 15, 1998. In addition, prior approval from the Institutional Animal Ethics Committee (IAEC) was obtained before the initiation of the study. Healthy male C57BL/6 mice (8–10 weeks old) weighing between 22 and 25 g were procured (Global, Pune, India). Three to five mice were housed in each cage. Temperature and humidity were maintained at 22 ± 2 °C and 41–63%, respectively, and illumination was controlled to give a sequence of a 12 h light and 12 h dark cycle. In the study’s in-life phase, we provided all mice with cage enrichment to minimize anxiety. We conducted bone marrow sampling under isoflurane anesthesia, maintaining it throughout the entire procedure. […] All procedures were carried out according to our in-house Standard Operating Procedures and monitored by a veterinarian if required. […]
Plasma samples from mice were collected at 0.5, 1 and 2 h after treatment with compound #18 (GT-01803). […] The plate was read at excitation 355 nm and emission 460 nm in TECAN Infinite® M1000 Pro reader (Thermo Fisher Scientific, UK). […]

[2] = molecular target: T2, IDUA (Homo sapiens, UniProt P35475); assay: Denaturation prevention (isothermal denaturation) assay with SYPRO Orange; assay type: binding; parameters: purchased R&D Systems; conditions: 30 μM compound, pH 7.0, 37 °C
T2 sequence (P35475 28-653): T1 sequence (P35475 28-653)
Protocol: The capacity of the compounds to stabilize IDUA in neutral pH buffer was assessed using the denaturation prevention assay. Briefly, rhIDUA (obtained from the Institute of Biotechnology and Biomedicine in the UAB, Bellaterra, Spain) was combined to a final concentration of 1 μM with 5X SYPRO Orange and 30 μM of the corresponding compound in a final reaction volume of 25 μL in 100 mM Hepes, 20 mM MgCl2, pH 7 buffer, or 25 mM NaAc, 150 mM NaCl, pH 5.2. Reactions were incubated at 37 °C, and SYPRO Orange fluorescence intensity was monitored at the indicated time points using Glomax® Discover microplate reader (Promega, Madison, WI, USA). Two independent experiments in triplicate at one concentration (30μM) of compound #18 (GT-01803) were performed for denaturation prevention assays.

CCN(CC(=O)Nc1c(Cl)cccc1Cl)Cc1nc2ccsc2c(=O)[nH]1 [GT-01803]
IDUA enzymatic activity levels in plasma [1]: increased | pH-induced denaturation of rhIDUA [2]: slowed down
